Assays:
Assay type in all cases: cell-based
[1] = system: P23H mutant mouse rhodopsin fused with Renilla luciferase (Rluc); assay: Rluc (luciferase) reporter assay in Hek293 (RHO^P23H-Rluc) cells; settings: for Efficacy, Rluc assay Hek293 (RHO^P23H − Rluc): 24 h, DMSO 0%, Evans Blue −100% controls; for EC50: 24 h compound treatment, dose-response, triplicate
From the text: Two Hek293 stable cell lines, Hek293 (RHO^WT-Rluc) and Hek293 (RHO^P23H-Rluc) cells were generated which stably express the WT and P23H mutant mouse rhodopsin each fused with a Renilla luciferase (Rluc) for the luciferase reporter assay as previously described. Briefly, the Hek 293 cells (ATCC, Manassas, VA, USA) were transfected with the pcDNA3.1 Zeo containing the cDNA of mouse WT or P23H rhodopsin fused with a Rluc 8 (a gift from Dr. Navine Lambert at Augusta University, Augusta, GA USA) and transfected cells were incubated in Dulbecco's modified Eagle's medium (DMEM, Genesee Scientific, E1 Cajon, CA USA) with 10% fetal bovine serum (FBS, Gibco Laboratories, Gaithersburg, MD USA) for 48 h before addition of 400 μg/mL of Zeocin (InvivoGen, San Diego, CA USA) for positive clone selection. Colonies of cells survived from 1 week of Zeocin selection were collected, and expression of WT and P23H rhodopsin were confirmed by a luciferase assay and immunoblotting of rhodopsin with positive bands of monomers at about 70 kD (FIG. 8). The difference of molecular masses between WT and P23H rhodopsin proteins was due to differences in glycosylation, which was also seen in the NIH3T3 cells expressing the WT and P23H rhodopsin proteins.
The HTS was performed at three facilities, including University of Cincinnati (UC), Case Western Reserve University, and National Center for Advancing Translational Sciences (NCATS), testing a total of six compound collections. These compound collections include: 1) the UC 10K Diversity Set (10,011 compounds), 2) the Life Chemicals 50K Collection (50,560), 3) the Spectrum Collection (2,400 compounds), 4) the LOPAC collection (1,280 compounds), 5) the FDA collection (2,816 compounds), and 6) the NCATS MIPE collection (1,912 compounds). […] For the compound collections 1), 2) and 3), we firstly tested each compound using the P23H rhodopsin luciferase reporter assay at a single dose for once (9.93 to 16.13 μM) in 384-well format, and we identified 2072 compounds with activity scores lower than the cutoff at mean-2SD. Activity scores were normalized using DMSO treated cells as 0% control and the 1 mM Evans Blue treated cells as −100% control. From these hit compounds, we excluded those reported with luciferase inhibitor activities and cherry-picked the rest for hit confirmation. Each hit was tested at 10 μM in the Hek293 (RHO^P23H-Rluc) cells again by the luciferase reporter assay in triplicates, and the confirmed hits with activity scores lower than-50% were then counter screened for their effects on Rluc activity by the recombinant Rluc activity assay, and on WT rhodopsin level by the luciferase reporter assay in the Hek293 (RHO^WT-Rluc) cells at 10 μM in triplicates, respectively. […] Next, we tested the dose responses of these confirmed hits in both the Hek293 (RHO^P23H-Rluc) and the Hek293 (RHO^WT-Rluc) cells and identified compounds that selectively favored the clearance of P23H than WT rhodopsin in a dose-dependent manner (Table 4). For the compound collections 4)-6), we tested each compound directly at 7 or 11 doses using the luciferase reporter assay in the Hek293 (RHO^P23H-Rluc) cells in 1536-well format, and identified 128 compounds with efficacy smaller than-50% and EC50<20 μM.
The Rluc reporter assay has been described before. HTS was undertaken in 384-well format for the UC 10K Diversity Set, Spectrum Collection and the Life Chemicals 50K diversity set, and in 1536-well format for the FDA, LOPAC, and MIPE collections. Using the 384-well format as an example, Hek (RHO^P23H-Rluc) cells were seeded in 384-well white-wall clear-bottom plates (assay plates) at 3×10^5/mL for 40 μL/well by an 8-channel Multiflo liquid dispenser (Bioteck, Winooski, VT USA). The assay plates were centrifuged at 300×g for 30 s and cultured at 37° C. with 5% CO2 overnight. […]

[2] = system: P23H rhodopsin; assay: Rhodopsin dot blot of NIH3T3 stable cells; settings: 10 μM, 24 h, vs DMSO
Experimental: NIH3T3 (RHO^P23H/GFP) or NIH3T3 (RHO^WT/GFP) cells were seeded at 2.5×10^4 cells/well in 100 μL/well complete medium in a 96-well plate and cultured at 37° C. with 5% CO2 for 4 h. Cells then were treated with 100 μL/well complete medium containing 2×the final concentration of tested compounds. After 24 h of further incubation at 37° C. with 5% CO2, the medium was aspirated, and the cells were washed once with PBS. The cell lysis buffer containing radioimmunoprecipitation assay (RIPA) buffer and complete protease inhibitor cocktail (Roche Diagnostics, Basel, Switzerland) were added to the cells at 200 μL/well followed by sonication for 6 s. Because the cellular protein level of RHO^WT was higher than RHO^P23H, 5% of one well NIH3T3 (RHO^WT/GFP) cells samples and 90% of one well NIH3T3 (RHO^P23H/GFP) cells samples were loaded to a nitrocellulose membrane and air-dried. Opsin protein was immunostained with 0.1 μg/mL HRP-conjugated 1D4 anti-rhodopsin antibody. Densitometry of the bands was measured by the ImageJ software and normalized to DMSO-treating control.

[3] = system: P23H rhodopsin; assay: Non-radioactive pulse-chase assay in NIH3T3 (RHO^P23H/GFP) cells; settings: 10 μM; for Rate of Rho^P23H degradation (Pulse-chase): 24 h of chase, vs DMSO; for BTN-AHA labeled P23H rhodopsin at 24 h of chase: in comparison to DMSO control
Experimental: To quantify rhodopsin degradation, a non-radioactive pulse-chase assay was used with a ‘click’ reaction. Briefly, NIH3T3 (Rho^P23H/GFP) or NIH3T3 (Rho^WT/GFP) cells were cultured in a 24-well plate at 3×10^5 cells/well in the complete medium with 10% FBS. The medium was aspirated after overnight culture, and cells were gently washed once with 1 mL/well of PBS. Cell were incubated in the L-methionine-free DMEM (Gibco, 21013-024, Gaithersburg, MD USA) for 1 h to exhaust the intracellular methionine. Then the cells were pulsed with L-AHA at final concentration 50 μM for 4 h. Meanwhile, the cells treated with 50 μM L-methionine were used as negative control. After labeling, cells were replaced with the complete DMEM medium with 2 mM L-methionine in the presence or absence of active compounds for a varying time of chase. Then cells were lysed with PBS containing 0.1% SDS, 1% DDM and the complete protease inhibitor cocktail. The total protein concentrations were measured by a BCA assay. Cell lysate containing 200 μg total protein was mixed with 5 μM BTN-sDIBO to make a ‘click’ reaction for 1 h at 37° C. Samples were incubated with Dynabeads™ Protein G binding with 1D4 anti-rhodopsin antibody for 15 min at room temperature followed by three washes with PBS containing 0.02% Tween 20. Proteins were eluted with 50 mM Glycine at pH 2.8 for 10 min at room temperature and then loaded onto nitrocellulose membranes. After air-dried, the membranes were blocked with 5% milk and immunoblotted with 0.25 μg/mL HRP-conjugated SA.

Structure (SMILES) | Efficacy, Rluc assay Hek293 (RHO^P23H − Rluc) [1] [%] | EC50 [1] [nM] | Rho protein level (Dot blot) [2] | Rate of Rho^P23H degradation (Pulse-chase) [3] | BTN-AHA labeled P23H rhodopsin at 24 h of chase [3]
CCn1cnc2c(N)ncnc21 [CL-007] | −72.5 | 13000 | Down | Up | significantly reduced
NCC(=O)COP(=O)(O)O [CL-005] | −78.2 | 6600 | Down | Up | significantly reduced
O=C(NC1CCNCC1)c1n[nH]cc1NC(=O)c1c(Cl)cccc1Cl [CL-006] | −66.2 | 1700 | Down | No Change | 
O=C(O)C1=CC=CC(O)C1O (centres unmarked) [CL-003] | −65.3 | 890 | Down | No Change | 
CN(Cc1cnc2nc(N)nc(N)c2n1)c1ccc(C(=O)N[C@@H](CCC(=O)O)C(=O)O)cc1 [CL-009, N-[4-[[(2,4-diamino-6-pteridinyl)methyl]methylamino]benzoyl]-L-glutamic acid] | −53.0 | 430 | Down | Up | significantly reduced
CC(O)CN (centres unmarked) [CL-004] | −68.6 | 1600 | Down | No Change | 
CC(=O)OC(CC(=O)O)C[N+](C)(C)C (centres unmarked) [CL-002] | −86.1 | 2000 | Down | Up | significantly reduced
CC(=O)OC(CC(=O)[O-])C[N+](C)(C)C (centres unmarked) [CL-001] | −69.4 | 1100 | Down | Up | significantly reduced
CCC(C)(O)C(O)C(=O)O (centres unmarked) [CL-008] | −89.5 | 930 | Down | No Change | 
